In patent US6369222B1, “mGluR antagonists and a method for their synthesis” (Hoffmann-La Roche Inc., priority 2000, dated 2002):
pIC50: −log10 of the molar value.

Key:
rat mGluR1a receptor = biological target: T1, rat mGluR1a receptor (Rattus norvegicus, UniProt P23385); test: Binding assay for the characterization of mGluR 1 antagonistic properties (displacement of tritiated 1-ethyl-2-methyl-6-oxo-4-(1,1,2-tritritio-1,2,4,5-tetrahydro-benzo[d]azepin-3-yl)-1,6-dihydro-pyrimidine-5-carbonitrile); conditions: membranes of HEK 293 cells transiently transfected with rat mGluR1a, 10 μg protein per assay; radioligand 3 nM; 1 hour at room temperature; read-out: B-IC50
T1 construct: expressed in transfected cells; host or cells: HEK 293 cells, transient transfection; membranes used
Experimental: Binding Assay for the Characterization of mGluR 1 Antagonistic Properties
Binding assay with tritiated 1-ethyl-2-methyl-6-oxo-4-(1,1,2-tritritio-1,2,4,5-tetrahydro-benzo[d]azepin-3-yl)-1,6-dihydro-pyrimidine-5-carbonitrile: HEK 293 cells were transiently transfected with the rat mGluR1a receptor. The cells were collected and washed 3 times with PBS. The cell pellets were frozen at −80° C. Membranes were prepared from HEK 293 cells transfected with the rat mGluR1a receptor and used in the binding experiments at 10 μg proteins per assay after resuspension in a HEPES NaOH 20 mM, pH=7.4 binding buffer. 1-Ethyl-2-methyl-6-oxo-4-(1,1,2-tritritio-1,2,4,5-tetrahydro-benzo[d]azepin-3-yl)-1,6-dihydro-pyrimidine-5-carbonitrile (S.A. 33.4 Ci/mmol) was used at 3 nM final concentration. The incubation with variable concentrations of potential inhibitors was performed for 1 hour at room temperature, the incubate was then filtered onto GF/B glass fiber filter preincubated 1 hour in PEI 0,1% and washed 3 times with 1 ml of cold binding buffer. The radioactivity retained on the unifilter 96 was counted using a Topcount β counter. After correction for non specific binding the data were normalized and the IC50 value calculated using a 4 parameters logistic equation which was fitted to the inhibition curve.

T1 sequence (P23385 19-1199): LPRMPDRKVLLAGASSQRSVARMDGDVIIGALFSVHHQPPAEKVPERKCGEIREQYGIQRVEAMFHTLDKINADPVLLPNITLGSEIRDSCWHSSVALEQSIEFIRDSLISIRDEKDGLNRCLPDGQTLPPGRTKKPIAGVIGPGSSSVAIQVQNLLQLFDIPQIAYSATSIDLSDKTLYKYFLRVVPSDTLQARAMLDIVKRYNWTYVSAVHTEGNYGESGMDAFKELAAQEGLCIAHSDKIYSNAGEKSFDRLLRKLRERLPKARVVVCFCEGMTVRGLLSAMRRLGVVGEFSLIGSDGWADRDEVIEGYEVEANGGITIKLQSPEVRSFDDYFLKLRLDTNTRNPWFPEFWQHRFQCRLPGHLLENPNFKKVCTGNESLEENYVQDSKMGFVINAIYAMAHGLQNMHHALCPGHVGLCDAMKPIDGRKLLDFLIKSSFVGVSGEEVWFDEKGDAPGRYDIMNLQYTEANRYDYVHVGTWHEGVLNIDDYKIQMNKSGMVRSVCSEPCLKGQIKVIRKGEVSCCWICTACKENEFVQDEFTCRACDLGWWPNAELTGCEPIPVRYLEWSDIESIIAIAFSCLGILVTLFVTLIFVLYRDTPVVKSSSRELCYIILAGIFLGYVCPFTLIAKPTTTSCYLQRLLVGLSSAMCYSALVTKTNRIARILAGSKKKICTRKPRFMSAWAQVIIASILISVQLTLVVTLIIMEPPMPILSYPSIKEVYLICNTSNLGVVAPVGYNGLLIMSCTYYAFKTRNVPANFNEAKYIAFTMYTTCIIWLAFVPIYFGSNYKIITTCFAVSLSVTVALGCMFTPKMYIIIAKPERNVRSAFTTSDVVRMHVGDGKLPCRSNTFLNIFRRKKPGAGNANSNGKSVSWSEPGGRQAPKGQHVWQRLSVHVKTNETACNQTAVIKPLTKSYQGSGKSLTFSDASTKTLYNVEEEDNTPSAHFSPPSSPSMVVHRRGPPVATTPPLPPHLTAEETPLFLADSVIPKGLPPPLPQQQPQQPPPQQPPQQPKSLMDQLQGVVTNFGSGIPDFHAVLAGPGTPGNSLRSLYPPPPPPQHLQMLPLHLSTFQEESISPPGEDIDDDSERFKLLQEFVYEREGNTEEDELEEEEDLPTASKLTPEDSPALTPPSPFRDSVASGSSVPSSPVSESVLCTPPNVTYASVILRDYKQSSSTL

SMILES	pIC50 (rat mGluR1a receptor)	melting point
Cc1nc(N2CCc3ccsc3CC2)c([N+](=O)[O-])c(=O)[nH]1 [Example 9, 2-Methyl-5-nitro-6-(4,5,7,8-tetrahydro-thieno[2,3-d]azepin-6-yl)-3H-pyrimidin-4-one]	5.72	> 200 °C
Cc1nc(O)c([N+](=O)[O-])c(N2CCc3cncnc3CC2)n1 [Example 7, 2-Methyl-5-nitro-6-(5,6,8,9-tetrahydro-pyrimido[4,5-d]azepin-7-yl)-pyrimidin-4-ol]	–	> 200 °C
Cc1nc(O)c2c(n1)CCN(c1nc(C)nc(O)c1[N+](=O)[O-])CC2 [Example 5, 7-(6-Hydroxy-2-methyl-5-nitro-pyrimidin-4-yl)-2-methyl-6,7,8,9-tetrahydro-5H-pyrimido[4,5-d]azepin-4-ol]	–	> 200 °C
Cc1nc(N2CCc3ncsc3CC2)c([N+](=O)[O-])c(=O)[nH]1 [Example 6, 2-Methyl-5-nitro-6-(4,5,7,8-tetrahydro-thiazolo[4,5-d]azepin-6-yl)-3H-pyrimidin-4-one]	4.37	–

Further lines, results first:

pIC50 (rat mGluR1a receptor)	melting point	SMILES
4.31	> 200 °C	Cc1nc(N2CCc3nc(N)sc3CC2)c([N+](=O)[O-])c(=O)[nH]1 [Example 3, 6-(2-Amino-4,5,7,8-tetrahydro-thiazolo[4,5-d]azepin-6-yl)-2-methyl-5-nitro-3H-pyrimidin-4-one]
4.52	> 200 °C	Cc1nc(N2CCc3nc(C)sc3CC2)c([N+](=O)[O-])c(=O)[nH]1 [Example 1, 2-methyl-6-(2-methyl-4,5,7,8-tetrahydro-thiazolo[4,5-d]azepin-6-yl)-5-nitro-3H-pyrimidin-4-one]
5.22	> 200 °C	CCn1c(C)nc(N2CCc3nc(N)sc3CC2)c([N+](=O)[O-])c1=O [Example 4, 6-(2-Amino-4,5,7,8-tetrahydro-thiazolo[4,5-d]azepin-6-yl)-3-ethyl-2-methyl-5-nitro-3H-pyrimidin-4-one]
–	164.2 to 166.8 °C	CCn1c(C)nc(N2CCc3nc(C)sc3CC2)c([N+](=O)[O-])c1=O [Example 2, 3-Ethyl-2-methyl-6-(2-methyl-4,5,7,8-tetrahydro-thiazolo[4,5-d]azepin-6-yl)-5-nitro-3H-pyrimidin-4-one]
